Series [1] deals with CYP1A2. Nature of the series: Metabolic stability in human liver microsomes with or without CYP1A2 inhibitor furafylline. The conditions noted are these: human, microsomes; for microsomal CLint at 1 µM: pH 7.4, CLint. How it is done: (§1) The amount of test compound remaining at each time point was analysed by LC-MS/MS. An incubation in the absence of NADPH was also performed to assess non-CYP mediated stability.
(§2) In the pre-screen assay, […] 0.1 M phosphate buffer pH 7.4 (final substrate concentration 1 µM) were pre-incubated at 37° C. prior to the addition of NADPH (final concentration 1 mM) to initiate the reaction. A minus cofactor control incubation was included for each compound tested where 0.1 M phosphate buffer pH 7.4 was added instead of NADPH (minus NADPH). […] A minus cofactor control incubation was included for each compound tested where 0.1 M phosphate buffer pH 7.4 was added instead of cofactor (minus NADPH). […] The reactions were stopped by transferring an aliquot of incubate to acetonitrile at the appropriate time points, in a 1:3 ratio. The termination plates were centrifuged at 3,000 rpm for 20 min at 4° C. to precipitate the protein. Following protein precipitation, the sample supernatants were analysed using LC-MS/MS, along with internal standard (1:1 supernatant to internal standard).
(§3) From a plot of In peak area ratio (compound peak area/internal standard peak area) against time, the gradient of the line was determined. Subsequently, half-life and intrinsic clearance were calculated using the equations below: […]
In general terms: Microsomes from liver hold many membrane-bound enzymes, among them those of drug oxidation.

The subject of series [2] is human liver microsomes. The series is described as above. The settings on record: 10 µM furafylline versus no inhibitor. How it is done: as §1, §2, §3
Assay in series [3]: as above
The settings on record: human, microsomes. How it is done: as §1, §2, §3

The target in series [4] is T1, CYP2C19 (Homo sapiens, UniProt P33261).
T1 construct: purchased
Nature of the series: Cytochrome P450 reaction phenotyping, recombinant CYP2C19. It counts as in vitro ADME. The settings on record: for t½: 1 µM substrate, recombinant CYP2C19, NADPH. Here is the method:
(§4) The amount of test compound remaining at each time point was analysed by LC-MS/MS. Incubations in control recombinant enzymes were also performed to assess non-enzymatic mediated stability.
(§5) Incubations were also performed using control Bactosomes™ (no cytochrome P450 enzymes present) to reveal any non-enzymatic degradation. Control compounds known to be metabolised specifically by each P450 isoform were included. All incubations were performed singularly for each test compound. […] The reactions were stopped by transferring an aliquot of incubate to quench solvent at the appropriate time points, in a 1:3 ratio. The termination plates were centrifuged at 3,000 rpm for 20 min at 4° C. to precipitate the protein. Following protein precipitation, the sample supernatants were analysed using LC-MS/MS, along with internal standard (1:1 supernatant to internal standard).
(§6) Following correction for any loss in the incubations with the control Bactosomes™, from a plot of In peak area ratio (compound peak area/internal standard peak area) against time, the gradient of the line was determined. Subsequently, half-life (t½) was calculated using the equations below: […]

The target in series [5] is T2, CYP1A2 (Homo sapiens, UniProt P05177).
T2 construct: purchased
T2 sequence (P05177 1-516): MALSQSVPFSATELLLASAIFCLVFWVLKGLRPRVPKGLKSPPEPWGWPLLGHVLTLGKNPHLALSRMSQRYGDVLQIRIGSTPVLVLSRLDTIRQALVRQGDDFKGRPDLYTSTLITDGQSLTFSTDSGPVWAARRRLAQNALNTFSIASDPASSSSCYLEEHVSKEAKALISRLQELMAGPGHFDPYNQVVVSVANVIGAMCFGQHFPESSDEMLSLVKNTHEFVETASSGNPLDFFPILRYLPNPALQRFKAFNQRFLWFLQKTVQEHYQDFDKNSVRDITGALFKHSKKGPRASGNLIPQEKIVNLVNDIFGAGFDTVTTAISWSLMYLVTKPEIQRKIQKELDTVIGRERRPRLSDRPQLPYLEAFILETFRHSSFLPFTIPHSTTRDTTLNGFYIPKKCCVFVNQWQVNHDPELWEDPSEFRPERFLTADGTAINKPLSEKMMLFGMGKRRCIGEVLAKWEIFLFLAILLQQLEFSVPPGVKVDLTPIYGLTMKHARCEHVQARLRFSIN
Description: Cytochrome P450 reaction phenotyping, recombinant CYP1A2. It counts as in vitro ADME. How it is done: as §4, §5, §6

T1 sequence (P33261 whole entry): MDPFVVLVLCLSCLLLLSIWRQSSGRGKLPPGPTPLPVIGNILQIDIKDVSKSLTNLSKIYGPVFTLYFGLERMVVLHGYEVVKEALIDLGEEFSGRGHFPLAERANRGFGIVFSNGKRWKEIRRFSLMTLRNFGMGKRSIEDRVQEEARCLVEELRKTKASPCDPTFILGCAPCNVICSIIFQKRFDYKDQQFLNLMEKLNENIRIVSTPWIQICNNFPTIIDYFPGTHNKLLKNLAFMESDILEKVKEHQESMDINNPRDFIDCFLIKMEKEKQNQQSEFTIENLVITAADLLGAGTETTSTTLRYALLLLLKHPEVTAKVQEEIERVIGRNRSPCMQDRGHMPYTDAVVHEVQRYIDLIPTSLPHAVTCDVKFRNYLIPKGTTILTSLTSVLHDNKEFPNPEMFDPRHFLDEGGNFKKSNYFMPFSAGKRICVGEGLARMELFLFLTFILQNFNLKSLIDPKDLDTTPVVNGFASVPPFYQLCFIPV

As to `COC(=O)Nc1nc2cc(C(=O)c3ccc(F)cc3)ccc2[nH]1` [Flubendazole, methyl N-[6-(4-fluorobenzoyl)-1H-benzimidazol-2-yl]carbamate], the intrinsic metabolic clearance (microsomal CLint) at 1 µM was determined as 14.6 µL/min/mg in series [1] (1 µM substrate, plus 3 µM furafylline); 3.52 µL/min/mg in series [1] (1 µM substrate, plus 10 µM furafylline); 5.39 µL/min/mg in series [1] (1 µM substrate, plus 30 µM furafylline); 50.3 µL/min/mg in series [3] (pH 7.4, CLint, 1 µM substrate, no inhibitor); 43.7 µL/min/mg in series [3] (pH 7.4, intrinsic clearance (CLint), pre-screen assay, absence of inhibitor). Also, the half-life at 1 µM in series [1] (pH 7.4, half-life, 1 µM flubendazole, 10 µM furafylline) was 6.6 h; in series [1] (pH 7.4, t½, 1 µM substrate, plus 3 µM furafylline) it was 1.58 h; in series [1] (pH 7.4, t½, 1 µM substrate, plus 10 µM furafylline) it was 6.57 h; in series [1] (pH 7.4, t½, 1 µM substrate, plus 30 µM furafylline), 4.28 h; in series [3] (pH 7.4, t½, 1 µM substrate, no inhibitor), 0.46 h; in series [5] (human, pH 7.4, 1 µM substrate, recombinant CYP1A2, NADPH, 30 and 45 minute time points excluded, read-out: t½) it was 2.34 min. Moreover, the increase in half-life in series [2] was more than 14 times. Also, the t½ in series [4] was 13.6 h; in series [4] (listed as flubendazole) it was not below 2.45 h. For the same compound, the “Compound Remaining (% of 0 min)” value in series [4] (CYP2C19, 0 min) is 100%; in series [4] (CYP2C19, 5 min), 99.5%; in series [4] (CYP2C19, 15 min), 97.7%; in series [4] (CYP2C19, 30 min) it was 98.8%; in series [4] (CYP2C19, 45 min), 95.5%; in series [5] (CYP1A2, 0 min), 100%. Moreover, the “Compound Remaining (% of 0 min)” value in series [5] (CYP1A2, 5 min) worked out at 38.6%; in series [5] (CYP1A2, 15 min), 1.30%; in series [5] (CYP1A2, 30 min) it was 0.0440%; in series [5] (CYP1A2, 45 min), 0.002%.

Broadly, the microsomal CLint is the rate of metabolic loss divided by the concentration. Broadly, the t½ is the time in which the quantity being followed falls by half.

The values above are taken from patent publication US20230301968A1 (ZEPHAPHARM LTD, priority 2020, published 2023).
